Data published in ChEMBL document CHEMBL5046291, “Evodiamine-Inspired Topoisomerase-Histone Deacetylase Dual Inhibitors: Novel Orally Active Antitumor Agents for Leukemia Therapy” (J Med Chem, 2022).
The source made the active and inactive calls. The calls are words filed in the database; no cut-off is given here.

Target: T1, DNA topoisomerase 1 (Homo sapiens) (UniProt P11387)
T1 sequence (whole entry): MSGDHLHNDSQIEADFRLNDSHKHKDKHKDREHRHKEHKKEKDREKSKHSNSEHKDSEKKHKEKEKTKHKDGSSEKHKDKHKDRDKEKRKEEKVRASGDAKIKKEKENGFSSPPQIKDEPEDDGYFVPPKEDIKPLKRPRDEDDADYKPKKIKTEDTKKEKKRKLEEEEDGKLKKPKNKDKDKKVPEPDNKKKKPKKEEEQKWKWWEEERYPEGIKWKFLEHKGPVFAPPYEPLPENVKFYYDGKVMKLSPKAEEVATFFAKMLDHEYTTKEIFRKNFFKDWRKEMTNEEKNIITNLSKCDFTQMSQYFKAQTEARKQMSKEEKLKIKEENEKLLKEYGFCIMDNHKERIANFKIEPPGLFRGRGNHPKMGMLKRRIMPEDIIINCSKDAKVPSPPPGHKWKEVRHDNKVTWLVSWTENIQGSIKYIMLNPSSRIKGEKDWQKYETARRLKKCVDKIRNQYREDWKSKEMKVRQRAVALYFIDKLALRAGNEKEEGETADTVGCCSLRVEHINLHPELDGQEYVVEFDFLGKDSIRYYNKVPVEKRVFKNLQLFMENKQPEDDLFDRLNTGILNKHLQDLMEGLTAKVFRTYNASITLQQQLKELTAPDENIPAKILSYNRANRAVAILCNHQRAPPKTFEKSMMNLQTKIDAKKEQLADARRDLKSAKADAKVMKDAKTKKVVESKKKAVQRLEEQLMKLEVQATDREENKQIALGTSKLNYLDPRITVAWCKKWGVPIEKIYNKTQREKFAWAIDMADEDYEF
Assay: Inhibition of recombinant Top1 (unknown origin) assessed as inhibition of relaxation of supercoiled pBR322 plasmid DNA at 100 uM incubated for 15 mins by ethidium bromide staining based agarose gel electrophoresis analysis
Conditions: not given

Compound | inhibition
CN1c2ccc(F)cc2C(=O)N2CCc3c([nH]c4ccc(OCc5ccc(C(=O)NO)cc5)cc34)C21 (stereo not drawn) | inactive
CN1c2ccc(F)cc2C(=O)N2CCc3c([nH]c4ccc(OCc5ccc(C(=O)Nc6ccccc6N)cc5)cc34)C21 (stereo not drawn) | Active
CN1c2ccc(F)cc2C(=O)N2CCc3c([nH]c4ccc(OCc5cccc(C(=O)NO)c5)cc34)C21 (stereo not drawn) | Active
CN1c2ccc(F)cc2C(=O)N2CCc3c([nH]c4ccc(OCCCCCCCC(=O)NO)cc34)C21 (stereo not drawn) | Active
CN1c2ccc(F)cc2C(=O)N2CCc3c([nH]c4ccc(OCCCCC(=O)NO)cc34)C21 (stereo not drawn) | inactive
CN1c2ccc(F)cc2C(=O)N2CCc3c([nH]c4ccc(OCc5ccccc5C(=O)NO)cc34)C21 (stereo not drawn) | Active
CN1c2ccc(F)cc2C(=O)N2CCc3c([nH]c4ccc(OCc5cccc(C(=O)Nc6ccccc6N)c5)cc34)C21 (stereo not drawn) | inactive
CN1c2ccc(F)cc2C(=O)N2CCc3c([nH]c4ccc(OCCCCCC(=O)Nc5ccccc5N)cc34)C21 (stereo not drawn) | inactive

Target: DNA topoisomerase 2-alpha (Homo sapiens) (UniProt P11388)
Assay: Inhibition of recombinant Top2 (unknown origin) assessed as inhibition of relaxation of supercoiled pBR322 plasmid DNA at 50 uM incubated for 15 mins by ethidium bromide staining based agarose gel electrophoresis analysis
Conditions: not given

DNA topoisomerase 2-alpha (Homo sapiens), sequence (P11388 whole entry): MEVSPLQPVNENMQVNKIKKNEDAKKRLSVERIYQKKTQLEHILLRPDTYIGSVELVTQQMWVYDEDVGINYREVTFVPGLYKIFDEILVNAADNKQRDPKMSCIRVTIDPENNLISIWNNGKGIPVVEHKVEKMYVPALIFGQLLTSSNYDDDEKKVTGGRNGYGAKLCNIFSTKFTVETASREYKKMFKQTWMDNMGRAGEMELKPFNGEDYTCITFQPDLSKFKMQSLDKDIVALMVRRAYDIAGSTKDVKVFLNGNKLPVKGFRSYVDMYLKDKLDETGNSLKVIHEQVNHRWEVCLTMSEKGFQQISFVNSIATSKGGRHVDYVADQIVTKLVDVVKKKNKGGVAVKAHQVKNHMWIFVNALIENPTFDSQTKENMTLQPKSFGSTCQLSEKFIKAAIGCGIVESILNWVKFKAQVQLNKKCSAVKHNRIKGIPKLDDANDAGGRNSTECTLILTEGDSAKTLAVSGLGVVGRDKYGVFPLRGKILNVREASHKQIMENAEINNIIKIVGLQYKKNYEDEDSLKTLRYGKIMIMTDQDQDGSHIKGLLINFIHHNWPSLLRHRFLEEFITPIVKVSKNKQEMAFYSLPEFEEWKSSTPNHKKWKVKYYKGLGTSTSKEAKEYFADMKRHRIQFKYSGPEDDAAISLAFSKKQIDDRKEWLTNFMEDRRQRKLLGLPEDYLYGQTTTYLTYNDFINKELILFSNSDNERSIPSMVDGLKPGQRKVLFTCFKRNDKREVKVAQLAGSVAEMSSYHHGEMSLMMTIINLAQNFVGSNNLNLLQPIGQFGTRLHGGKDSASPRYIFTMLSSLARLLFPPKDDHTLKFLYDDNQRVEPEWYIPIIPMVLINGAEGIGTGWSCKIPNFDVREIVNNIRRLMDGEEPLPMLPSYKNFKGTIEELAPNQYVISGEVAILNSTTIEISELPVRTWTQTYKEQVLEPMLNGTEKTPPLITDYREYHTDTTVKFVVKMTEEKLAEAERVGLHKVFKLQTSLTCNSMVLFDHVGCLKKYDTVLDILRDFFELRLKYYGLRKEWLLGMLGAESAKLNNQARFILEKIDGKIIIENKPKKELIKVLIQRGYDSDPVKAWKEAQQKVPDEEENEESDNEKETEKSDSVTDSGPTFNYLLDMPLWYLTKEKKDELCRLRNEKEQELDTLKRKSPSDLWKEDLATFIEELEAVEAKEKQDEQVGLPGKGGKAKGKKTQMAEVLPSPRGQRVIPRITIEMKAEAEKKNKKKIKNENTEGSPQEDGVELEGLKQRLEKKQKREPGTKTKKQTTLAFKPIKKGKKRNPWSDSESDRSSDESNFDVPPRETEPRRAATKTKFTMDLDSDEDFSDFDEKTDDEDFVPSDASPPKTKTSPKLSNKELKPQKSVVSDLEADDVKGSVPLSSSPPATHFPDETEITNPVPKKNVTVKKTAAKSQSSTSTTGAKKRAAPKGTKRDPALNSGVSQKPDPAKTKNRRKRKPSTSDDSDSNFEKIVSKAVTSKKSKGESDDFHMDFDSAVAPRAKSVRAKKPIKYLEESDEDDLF

Compound | inhibition
CN1c2ccc(F)cc2C(=O)N2CCc3c([nH]c4ccc(OCc5ccc(C(=O)NO)cc5)cc34)C21 (stereo not drawn) | Active
CN1c2ccc(F)cc2C(=O)N2CCc3c([nH]c4ccc(OCc5cccc(C(=O)NO)c5)cc34)C21 (stereo not drawn) | Active
CN1c2ccc(F)cc2C(=O)N2CCc3c([nH]c4ccc(OCCCCC(=O)NO)cc34)C21 (stereo not drawn) | Active
CN1c2ccc(F)cc2C(=O)N2CCc3c([nH]c4ccc(OCc5ccccc5C(=O)NO)cc34)C21 (stereo not drawn) | Active

Target: Histone deacetylase 1 (Homo sapiens, UniProt Q13547)
Assay: Inhibition of full-length recombinant human HDAC1 expressed in Baculovirus expression system using Ac-Leu-Gly-Lys(Ac)-AMC as substrate preincubated for 5 mins followed by substrate addition and further incubated for 30 mins by fluorescence based microtiter plate reader assay
Conditions: not given

Histone deacetylase 1, sequence (Q13547 whole entry): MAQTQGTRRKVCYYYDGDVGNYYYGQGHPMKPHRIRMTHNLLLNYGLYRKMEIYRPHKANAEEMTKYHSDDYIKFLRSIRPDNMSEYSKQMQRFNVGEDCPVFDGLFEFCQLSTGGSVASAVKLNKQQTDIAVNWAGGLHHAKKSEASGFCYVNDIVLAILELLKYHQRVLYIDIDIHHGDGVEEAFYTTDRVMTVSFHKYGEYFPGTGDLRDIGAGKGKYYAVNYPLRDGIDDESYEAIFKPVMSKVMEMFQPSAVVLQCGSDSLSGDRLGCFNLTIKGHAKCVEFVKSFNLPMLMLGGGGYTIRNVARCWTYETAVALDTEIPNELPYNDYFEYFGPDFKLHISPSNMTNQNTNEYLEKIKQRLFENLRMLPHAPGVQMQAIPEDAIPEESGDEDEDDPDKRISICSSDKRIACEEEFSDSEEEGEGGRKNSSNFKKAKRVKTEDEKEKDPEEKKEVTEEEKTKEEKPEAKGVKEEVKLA

Compound | IC50 [nM]
CN1c2ccc(F)cc2C(=O)N2CCc3c([nH]c4ccc(OCc5ccc(C(=O)NO)cc5)cc34)C21 (stereo not drawn) | 32
CN1c2ccc(F)cc2C(=O)N2CCc3c([nH]c4ccc(OCc5ccc(C(=O)Nc6ccccc6N)cc5)cc34)C21 (stereo not drawn) | 31
CN1c2ccc(F)cc2C(=O)N2CCc3c([nH]c4ccc(OCc5cccc(C(=O)NO)c5)cc34)C21 (stereo not drawn) | 1900
CN1c2ccc(F)cc2C(=O)N2CCc3c([nH]c4ccc(OCCCCCCCC(=O)NO)cc34)C21 (stereo not drawn) | 150
CN1c2ccc(F)cc2C(=O)N2CCc3c([nH]c4ccc(OCCCCC(=O)NO)cc34)C21 (stereo not drawn) | 21
CN1c2ccc(F)cc2C(=O)N2CCc3c([nH]c4ccc(OCc5ccccc5C(=O)NO)cc34)C21 (stereo not drawn) | 6100
CN1c2ccc(F)cc2C(=O)N2CCc3c([nH]c4ccc(OCc5cccc(C(=O)Nc6ccccc6N)c5)cc34)C21 (stereo not drawn) | 3600
CN1c2ccc(F)cc2C(=O)N2CCc3c([nH]c4ccc(OCCCCCC(=O)Nc5ccccc5N)cc34)C21 (stereo not drawn) | 320

System: MCF7
Assay: Antiproliferative activity against human MCF7 cells assessed as cell growth inhibition incubated for 8 hrs by CCK8 assay
Type: functional, cell-based
Conditions: MCF7, 8 h

Compound | IC50 [nM]
CN1c2ccc(F)cc2C(=O)N2CCc3c([nH]c4ccc(OCc5ccc(C(=O)NO)cc5)cc34)C21 (stereo not drawn) | 160
CN1c2ccc(F)cc2C(=O)N2CCc3c([nH]c4ccc(OCc5ccc(C(=O)Nc6ccccc6N)cc5)cc34)C21 (stereo not drawn) | 1910
CN1c2ccc(F)cc2C(=O)N2CCc3c([nH]c4ccc(OCc5cccc(C(=O)NO)c5)cc34)C21 (stereo not drawn) | > 2000
CN1c2ccc(F)cc2C(=O)N2CCc3c([nH]c4ccc(OCCCCCCCC(=O)NO)cc34)C21 (stereo not drawn) | > 2000
CN1c2ccc(F)cc2C(=O)N2CCc3c([nH]c4ccc(OCCCCC(=O)NO)cc34)C21 (stereo not drawn) | 1560
CN1c2ccc(F)cc2C(=O)N2CCc3c([nH]c4ccc(OCc5ccccc5C(=O)NO)cc34)C21 (stereo not drawn) | 800
CN1c2ccc(F)cc2C(=O)N2CCc3c([nH]c4ccc(OCc5cccc(C(=O)Nc6ccccc6N)c5)cc34)C21 (stereo not drawn) | > 2000
CN1c2ccc(F)cc2C(=O)N2CCc3c([nH]c4ccc(OCCCCCC(=O)Nc5ccccc5N)cc34)C21 (stereo not drawn) | > 2000

System: A549
Assay: Antiproliferative activity against human A549 cells assessed as cell growth inhibition incubated for 8 hrs by CCK8 assay
Type: functional, cell-based
Conditions: A549, 8 h

Compound | IC50 [nM]
CN1c2ccc(F)cc2C(=O)N2CCc3c([nH]c4ccc(OCc5ccc(C(=O)NO)cc5)cc34)C21 (stereo not drawn) | > 2000
CN1c2ccc(F)cc2C(=O)N2CCc3c([nH]c4ccc(OCc5ccc(C(=O)Nc6ccccc6N)cc5)cc34)C21 (stereo not drawn) | > 2000
CN1c2ccc(F)cc2C(=O)N2CCc3c([nH]c4ccc(OCc5cccc(C(=O)NO)c5)cc34)C21 (stereo not drawn) | > 2000
CN1c2ccc(F)cc2C(=O)N2CCc3c([nH]c4ccc(OCCCCCCCC(=O)NO)cc34)C21 (stereo not drawn) | 1580
CN1c2ccc(F)cc2C(=O)N2CCc3c([nH]c4ccc(OCCCCC(=O)NO)cc34)C21 (stereo not drawn) | 330
CN1c2ccc(F)cc2C(=O)N2CCc3c([nH]c4ccc(OCc5ccccc5C(=O)NO)cc34)C21 (stereo not drawn) | 1210
CN1c2ccc(F)cc2C(=O)N2CCc3c([nH]c4ccc(OCc5cccc(C(=O)Nc6ccccc6N)c5)cc34)C21 (stereo not drawn) | 1320
CN1c2ccc(F)cc2C(=O)N2CCc3c([nH]c4ccc(OCCCCCC(=O)Nc5ccccc5N)cc34)C21 (stereo not drawn) | 720

System: HCT-116
Assay: Antiproliferative activity against human HCT-116 cells assessed as cell growth inhibition incubated for 8 hrs by CCK8 assay
Type: functional, cell-based
Conditions: HCT-116, 8 h

Compound | IC50 [nM]
CN1c2ccc(F)cc2C(=O)N2CCc3c([nH]c4ccc(OCc5ccc(C(=O)NO)cc5)cc34)C21 (stereo not drawn) | 500
CN1c2ccc(F)cc2C(=O)N2CCc3c([nH]c4ccc(OCc5ccc(C(=O)Nc6ccccc6N)cc5)cc34)C21 (stereo not drawn) | > 2000
CN1c2ccc(F)cc2C(=O)N2CCc3c([nH]c4ccc(OCc5cccc(C(=O)NO)c5)cc34)C21 (stereo not drawn) | > 2000
CN1c2ccc(F)cc2C(=O)N2CCc3c([nH]c4ccc(OCCCCCCCC(=O)NO)cc34)C21 (stereo not drawn) | > 2000
CN1c2ccc(F)cc2C(=O)N2CCc3c([nH]c4ccc(OCCCCC(=O)NO)cc34)C21 (stereo not drawn) | > 2000
CN1c2ccc(F)cc2C(=O)N2CCc3c([nH]c4ccc(OCc5ccccc5C(=O)NO)cc34)C21 (stereo not drawn) | 150
CN1c2ccc(F)cc2C(=O)N2CCc3c([nH]c4ccc(OCc5cccc(C(=O)Nc6ccccc6N)c5)cc34)C21 (stereo not drawn) | > 2000
CN1c2ccc(F)cc2C(=O)N2CCc3c([nH]c4ccc(OCCCCCC(=O)Nc5ccccc5N)cc34)C21 (stereo not drawn) | > 2000

System: HepG2
Assay: Antiproliferative activity against human HepG2 cells assessed as cell growth inhibition incubated for 8 hrs by CCK8 assay
Type: functional, cell-based
Conditions: HepG2, 8 h

Compound | IC50 [nM]
CN1c2ccc(F)cc2C(=O)N2CCc3c([nH]c4ccc(OCc5ccc(C(=O)NO)cc5)cc34)C21 (stereo not drawn) | 98
CN1c2ccc(F)cc2C(=O)N2CCc3c([nH]c4ccc(OCc5ccc(C(=O)Nc6ccccc6N)cc5)cc34)C21 (stereo not drawn) | 125000
CN1c2ccc(F)cc2C(=O)N2CCc3c([nH]c4ccc(OCc5cccc(C(=O)NO)c5)cc34)C21 (stereo not drawn) | 1620
CN1c2ccc(F)cc2C(=O)N2CCc3c([nH]c4ccc(OCCCCCCCC(=O)NO)cc34)C21 (stereo not drawn) | > 2000
CN1c2ccc(F)cc2C(=O)N2CCc3c([nH]c4ccc(OCCCCC(=O)NO)cc34)C21 (stereo not drawn) | 810
CN1c2ccc(F)cc2C(=O)N2CCc3c([nH]c4ccc(OCc5ccccc5C(=O)NO)cc34)C21 (stereo not drawn) | 120
CN1c2ccc(F)cc2C(=O)N2CCc3c([nH]c4ccc(OCc5cccc(C(=O)Nc6ccccc6N)c5)cc34)C21 (stereo not drawn) | 420
CN1c2ccc(F)cc2C(=O)N2CCc3c([nH]c4ccc(OCCCCCC(=O)Nc5ccccc5N)cc34)C21 (stereo not drawn) | > 2000

System: K562
Assay: Antiproliferative activity against human K562 cells assessed as cell growth inhibition incubated for 8 hrs by CCK8 assay
Type: functional, cell-based
Conditions: K562, 8 h

Compound | IC50 [nM]
CN1c2ccc(F)cc2C(=O)N2CCc3c([nH]c4ccc(OCc5ccc(C(=O)NO)cc5)cc34)C21 (stereo not drawn) | 250
CN1c2ccc(F)cc2C(=O)N2CCc3c([nH]c4ccc(OCc5ccc(C(=O)Nc6ccccc6N)cc5)cc34)C21 (stereo not drawn) | 250
CN1c2ccc(F)cc2C(=O)N2CCc3c([nH]c4ccc(OCc5cccc(C(=O)NO)c5)cc34)C21 (stereo not drawn) | > 2000
CN1c2ccc(F)cc2C(=O)N2CCc3c([nH]c4ccc(OCCCCCCCC(=O)NO)cc34)C21 (stereo not drawn) | > 2000
CN1c2ccc(F)cc2C(=O)N2CCc3c([nH]c4ccc(OCCCCC(=O)NO)cc34)C21 (stereo not drawn) | 410
CN1c2ccc(F)cc2C(=O)N2CCc3c([nH]c4ccc(OCc5ccccc5C(=O)NO)cc34)C21 (stereo not drawn) | 86
CN1c2ccc(F)cc2C(=O)N2CCc3c([nH]c4ccc(OCc5cccc(C(=O)Nc6ccccc6N)c5)cc34)C21 (stereo not drawn) | 1380
CN1c2ccc(F)cc2C(=O)N2CCc3c([nH]c4ccc(OCCCCCC(=O)Nc5ccccc5N)cc34)C21 (stereo not drawn) | 1200

System: HEL
Assay: Antiproliferative activity against HEL cells assessed as cell growth inhibition incubated for 8 hrs by CCK8 assay
Type: functional, cell-based
Conditions: Homo sapiens

Compound | IC50 [nM]
CN1c2ccc(F)cc2C(=O)N2CCc3c([nH]c4ccc(OCc5ccc(C(=O)NO)cc5)cc34)C21 (stereo not drawn) | > 2000
CN1c2ccc(F)cc2C(=O)N2CCc3c([nH]c4ccc(OCc5ccc(C(=O)Nc6ccccc6N)cc5)cc34)C21 (stereo not drawn) | 44
CN1c2ccc(F)cc2C(=O)N2CCc3c([nH]c4ccc(OCc5cccc(C(=O)NO)c5)cc34)C21 (stereo not drawn) | 580
CN1c2ccc(F)cc2C(=O)N2CCc3c([nH]c4ccc(OCCCCCCCC(=O)NO)cc34)C21 (stereo not drawn) | 1580
CN1c2ccc(F)cc2C(=O)N2CCc3c([nH]c4ccc(OCCCCC(=O)NO)cc34)C21 (stereo not drawn) | 580
CN1c2ccc(F)cc2C(=O)N2CCc3c([nH]c4ccc(OCc5ccccc5C(=O)NO)cc34)C21 (stereo not drawn) | 290
CN1c2ccc(F)cc2C(=O)N2CCc3c([nH]c4ccc(OCc5cccc(C(=O)Nc6ccccc6N)c5)cc34)C21 (stereo not drawn) | 660
CN1c2ccc(F)cc2C(=O)N2CCc3c([nH]c4ccc(OCCCCCC(=O)Nc5ccccc5N)cc34)C21 (stereo not drawn) | 1100

Target: DNA topoisomerase 2-alpha (Homo sapiens) (UniProt P11388)
Assay: Inhibition of recombinant Top2 (unknown origin) assessed as inhibition of relaxation of supercoiled pBR322 plasmid DNA at 100 uM incubated for 15 mins by ethidium bromide staining based agarose gel electrophoresis analysis
Conditions: not given

Compound | inhibition
CN1c2ccc(F)cc2C(=O)N2CCc3c([nH]c4ccc(OCc5ccc(C(=O)NO)cc5)cc34)C21 (stereo not drawn) | Active
CN1c2ccc(F)cc2C(=O)N2CCc3c([nH]c4ccc(OCc5cccc(C(=O)NO)c5)cc34)C21 (stereo not drawn) | Active
CN1c2ccc(F)cc2C(=O)N2CCc3c([nH]c4ccc(OCCCCCCCC(=O)NO)cc34)C21 (stereo not drawn) | inactive
CN1c2ccc(F)cc2C(=O)N2CCc3c([nH]c4ccc(OCCCCC(=O)NO)cc34)C21 (stereo not drawn) | Active
CN1c2ccc(F)cc2C(=O)N2CCc3c([nH]c4ccc(OCc5ccccc5C(=O)NO)cc34)C21 (stereo not drawn) | Active
